Measurements as given in patent publication US20100305068A1, “COMPOUNDS AND METHODS FOR MODULATING PROTEIN TRAFFICKING” (priority 2006, published 2010).
Read-outs that look alike come from different tables or passages of the source.

System: pdr5 ypt1^ts cells
Assay: microbe, parasite or virus in culture
Assay type: cell-based, yeast
Details: for minimal effective concentration: Saccharomyces cerevisiae, lowest concentration tested giving growth above the 0 μM background, read-out: ypt1-ts MRC (minimal rescue concentration); for minimal effective concentration / optical density, ypt1-ts, 0.39 / optical density, ypt1-ts, 0.78 / optical density, ypt1-ts, 1.56 / optical density, ypt1-ts, 3.13 / optical density, ypt1-ts, 6.25 / optical density, ypt1-ts, 12.5 / optical density, ypt1-ts, 25: Table 2; for optical density, ypt1-ts, 0.39: 0.39 μM compound; for optical density, ypt1-ts, 0.39 / optical density, ypt1-ts, 0.78 / optical density, ypt1-ts, 1.56 / optical density, ypt1-ts, 3.13 / optical density, ypt1-ts, 6.25 / optical density, ypt1-ts, 12.5 / optical density, ypt1-ts, 25: background (0 μM) 0.058; for optical density, ypt1-ts, 0.78: 0.78 μM compound; for optical density, ypt1-ts, 1.56: 1.56 μM compound; for optical density, ypt1-ts, 3.13: 3.13 μM compound; for optical density, ypt1-ts, 6.25: 6.25 μM compound; for optical density, ypt1-ts, 12.5: 12.5 μM compound; for optical density, ypt1-ts, 25: 25 μM compound
From the text: The activity of the compounds as modulators of protein trafficking may be measured in the assays described herein that evaluate the ability of a compound to rescue an impairment in protein trafficking. For example, the yeast mutant cell line ypt1^ts can be used to identify compounds that rescue cells from the lethal phenotype of a mutant YPT1 allele (see, e.g., Examples and Schmitt et al. (1988) Cell 53:635-47). The activity may be measured, for example, in a whole yeast cell assay using 384-well screening protocol and an optical density measurement.
The yeast mutant cell line ypt1^ts suppresses, in a temperature dependent fashion, the dominant-lethal phenotype of a mutant YPT1 allele (Schmitt et al. (1988) Cell 53:635-47). ypt1^ts cells grow normally at temperatures up to 30° C., but are growth arrested at 37° C. (Id.).
A library of compounds (“The Spectrum Collection”) obtained from Microsource Discovery Systems, Inc. (Gaylordsville, Conn.) was screened to assess the ability of individual compounds to restore growth of ypt1^ts cells. Screening was carried out using ypt1^ts cells containing a mutation in the pdr5 gene (resulting in inactivation of a membrane efflux pump). The effect of the compounds was measured in pdr5 ypt1^ts cells cultured at 37° C.

[1] = Table 3, 3.13 uM compound, 37° C., background (0 uM) 0.077
[2] = Table 3, 12.5 uM compound, 37° C., background (0 uM) 0.077
[3] = Table 3, 50 uM compound, 37° C., background (0 uM) 0.077

Row | Compound | optical density, 3.13 uM [1] | optical density, 12.5 uM [2] | optical density, 50 uM [3] | minimal effective concentration (37° C.) [µM] | optical density, ypt1-ts, 0.39 (37° C.) | optical density, ypt1-ts, 0.78 (37° C.) | optical density, ypt1-ts, 1.56 (37° C.) | optical density, ypt1-ts, 3.13 (37° C.) | optical density, ypt1-ts, 6.25 (37° C.) | optical density, ypt1-ts, 12.5 (37° C.) | optical density, ypt1-ts, 25 (37° C.) | other results
1 | CCc1cccc(CC)c1N(COC)C(=O)CCl [ALACHLOR] | 0.101 | 0.142 | 0.45 | – | – | – | – | – | – | – | – | –
2 | COc1c2c(cc3c1OCO3)[C@]13C=C[C@H](OC)C[C@H]1N(C2)C[C@@H]3O [AMBELLINE] | 0.071 | 0.302 | 0.057 | – | – | – | – | – | – | – | – | –
3 | COc1ccc([C@@H](C)C(=O)c2ccc(O)cc2O)cc1 [ANGOLENSIN (R)] | 0.327 | 0.652 | 0.062 | – | – | – | – | – | – | – | – | –
4 | CC(=O)O[C@@H]1C[C@@]2(C)[C@H](c3ccoc3)C[C@H]3O[C@]32[C@]2(C)C(=O)C(O)=C3C(C)(C)C(=O)C=C[C@]3(C)[C@@H]12 [ANTHOTHECOL] | – | – | – | 3.13 | 0.161 | 0.085 | 0.12 | 0.262 | 0.537 | 0.581 | 0.557 | –
5 | C#CCCCCCCCCCCCC(O)CC(O)CO (stereo not drawn) [AVO- CADYNE] | 0.132 | 0.425 | 0.265 | – | – | – | – | – | – | – | – | –
6 | C#CCCCCCCCCCCCC(=O)CC(O)COC(C)=O (stereo not drawn) [AVO- CADYNONE ACETATE] | 0.126 | 0.275 | 0.057 | – | – | – | – | – | – | – | – | –
7 | C=CCCCCCCCCCCCC(O)CC(O)CO (stereo not drawn) [AVOCADENE] | – | – | – | 6.25 | 0.097 | 0.074 | 0.09 | 0.108 | 0.134 | 0.209 | 0.408 | –
8 | C#CCCCCCCCCCCCC(O)CC(O)COC(C)=O (stereo not drawn) [AVOCADYNE ACETATE] | 0.389 | 0.406 | 0.039 | – | – | – | – | – | – | – | – | –
9 | O=C1c2ccccc2-c2cccc3cccc1c23 [BENZANTHRONE] | – | – | – | 3.13 | 0.108 | 0.09 | 0.123 | 0.263 | 0.491 | 0.547 | 0.383 | –
10 | COc1ccc(-c2coc3cc(O)cc(O)c3c2=O)cc1 [BIO- CHANIN A] | 0.112 | 0.297 | 0.055 | – | – | – | – | – | – | – | – | –
11 | CC1(C)CC2C1CCC1(CBr)CC[C@H]3C(CC(=O)O)C(=O)OC23C1 (stereo partly drawn) [BROMO-3-HYDROXY- 4-(SUCCIN-2-YL)- CARYOLANE gamma- LACTONE] | – | – | – | 6.25 | 0.091 | 0.079 | 0.091 | 0.101 | 0.139 | 0.245 | 0.417 | –
12 | COC(=O)C[C@H]1C(C)(C)C(=O)[C@@H]2CC3C4=CC(=O)O[C@@H](c5ccoc5)[C@]4(C)CCC3[C@]1(C)C2=O (stereo partly drawn) [CARAPIN] | 0.22 | 0.357 | 0.5 | – | – | – | – | – | – | – | – | –
13 | CNC(=O)Oc1cccc2c1OC(C)(C)C2 [CARBO- FURAN] | 0.176 | 0.264 | 0.239 | – | – | – | – | – | – | – | – | –
14 | C=C1CCC(OC(C)=O)/C(C)=C/C[C@@H]2[C@@H]1CC2(C)C (stereo partly drawn) [CARY[…]] | – | – | – | 12.5 | 0.087 | 0.076 | 0.084 | 0.1 | 0.109 | 0.239 | 0.258 | –
15 | CC1(C)C(=O)C=C[C@@]2(C)C1=C(O)C(=O)[C@]1(C)[C@@H]2CC[C@@]2(C)[C@H](c3ccoc3)C[C@H]3O[C@]321 [CEDRELONE] | – | – | – | 1.56 | 0.221 | 0.124 | 0.264 | 0.49 | 0.532 | 0.541 | 0.496 | –
16 | CC(CCC(=O)O)[C@H]1CCC2C3C(CC[C@@]21C)[C@@]1(C)CC[C@@H](O)C[C@H]1C[C@H]3O (stereo partly drawn) [CHENODIOL, reference compound] | 0.126 | 0.285 | 0.15 | – | – | – | – | – | – | – | – | –
17 | CCOP(=S)(OCC)Oc1nc(Cl)c(Cl)cc1Cl [CHLOR- PYRIFOS] | 0.122 | 0.166 | 0.253 | – | – | – | – | – | – | – | – | –
18 | CC(=O)O[C@]1(C(C)=O)CC[C@H]2[C@@H]3C=C(Cl)C4=CC(=O)CC[C@]4(C)[C@H]3CC[C@@]21C [CHLORMADINONE ACETATE, reference compound] | – | – | – | 12.5 | 0.193 | 0.078 | 0.088 | 0.112 | 0.11 | 0.2 | 0.296 | –
19 | CC(C)OC(=O)Nc1cccc(Cl)c1 [CHLORPROPHAM] | – | – | – | 25 | 0.086 | 0.072 | 0.081 | 0.09 | 0.096 | 0.101 | 0.145 | –
20 | CC1=C2C(=CO[C@H](C)[C@H]2C)C(=O)C(C(=O)O)=C1O [CITRININ] | 0.102 | 0.158 | 0.38 | – | – | – | – | – | – | – | – | –
21 | Cl.Clc1cccc(Cl)c1N=C1NCCN1 [CLONIDINE HYDRO- CHLORIDE, reference compound] | – | – | – | – | – | – | – | – | – | – | – | optical density, 3.13 uM: 0.237; optical density, 12.5 uM: 0.095; optical density, 50 uM: 0.064
22 | C=C1C(=O)OC2CC1C(OC(C)=O)C/C(C)=C/CC/C(C)=C/CC[C@]2(C)O (stereo partly drawn) [CRASSIN ACETATE] | – | – | – | 12.5 | 0.084 | 0.068 | 0.075 | 0.099 | 0.107 | 0.324 | 0.443 | –
23 | CC1(C)C(=O)C=C[C@@]2(C)C1CC(=O)[C@]1(C)C2CC[C@@]2(C)[C@H](c3ccoc3)OC(=O)[C@H]3O[C@]321 (stereo partly drawn) [DEACETOXY- 7-OXOGEDUNIN] | 0.594 | 0.63 | 0.642 | – | – | – | – | – | – | – | – | –
24 | CC1(C)C(=O)C=C[C@@]2(C)C1C[C@@H](O)[C@]1(C)C2CC[C@@]2(C)[C@H](c3ccoc3)OC(=O)[C@H]3O[C@]321 (stereo partly drawn) [DEACETYL- GEDUNIN] | 0.116 | 0.185 | 0.377 | – | – | – | – | – | – | – | – | –
